{"source": "patent US10206394B2", "about": "“Herbicidal compounds” (Syngenta Participations AG, priority 2014, dated 2019)", "format_in_all_cases": "in vivo", "key": {"[1]": {"tested_on": "Winter Wheat variety 'Hereward'", "test": "Glasshouse assay for crop safety, post-emergence, +/- safener cloquintocet-mexyl (CQC), percentage phytotoxicity", "conditions": "250 g/ha, evaluated after 13 days, 100=total damage, 0=no damage"}, "Lolium perenne (LOLPE)": {"tested_on": "Lolium perenne (LOLPE)", "test": "Glasshouse assay for herbicidal activity (pre- and post-emergence), percentage phytotoxicity", "conditions": "Lolium perenne, Rate 250 g/ha, 100%=total damage, 0%=no damage", "in_short": "(§1)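 Visually rated damage, 0–100%. PRE spray 1 d after sowing, scored 20 DAA; POST spray ~12 d, scored 15 DAA. Glasshouse at 65% humidity, 16 h day.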"}, "[2]": {"tested_on": "Alopecurus myosuroides (ALOMY)", "test": "Glasshouse assay for herbicidal activity (pre- and post-emergence), percentage phytotoxicity", "conditions": "Alopecurus myosuroides, Rate 250 g/ha, 100%=total damage, 0%=no damage", "in_short": "as §1"}, "[3]": {"tested_on": "Echinochloa crus-galli (ECHCG)", "test": "Glasshouse assay for herbicidal activity (pre- and post-emergence), percentage phytotoxicity", "conditions": "Echinochloa crus-galli, Rate 250 g/ha, 100%=total damage, 0%=no damage", "in_short": "as §1"}, "Avena fatua (AVEFA)": {"tested_on": "Avena fatua (AVEFA)", "test": "Glasshouse assay for herbicidal activity (pre- and post-emergence), percentage phytotoxicity", "conditions": "Avena fatua, Rate 250 g/ha, 100%=total damage, 0%=no damage", "in_short": "as §1"}}, "note": "Like-named read-outs stand apart in the source and are kept apart here."}
{"smiles": "Cc1cc(-c2ccc(Cl)cn2)cc(C)c1C1C(=O)CC(CC(=O)NCc2cccc(C(F)(F)F)c2)C1=O", "note": "(stereo not shown) [Compound A146]", "values": [{"measurement": "Post-emergence Crop Selectivity, percentage phytotoxicity, Wheat +CQC", "setting": "[1]; with safener cloquintocet-mexyl (CQC) seed treatment 0.5 g/kg seed", "value": 50, "unit": "%"}, {"measurement": "Post-emergence Crop Selectivity, percentage phytotoxicity, Wheat − CQC", "setting": "[1]; without safener cloquintocet-mexyl (CQC)", "value": 80, "unit": "%"}, {"measurement": "pest or weed control at 250 g/ha", "setting": "Lolium perenne (LOLPE); post-emergence, 360 h, post-emergence, assessed visually 15 DAA, read-out: Post-emergence herbicidal activity (percentage phytotoxicity) LOLPE POST", "value": 100, "unit": "%"}, {"measurement": "pest or weed control at 250 g/ha", "setting": "Lolium perenne (LOLPE); pre-emergence, 480 h, pre-emergence, assessed visually 20 DAA, read-out: Pre-emergence herbicidal activity (percentage phytotoxicity) LOLPE PRE", "value": 90, "unit": "%"}, {"measurement": "pest or weed control at 250 g/ha", "setting": "[2]; post-emergence, 360 h, post-emergence, assessed visually 15 DAA, read-out: Post-emergence herbicidal activity (percentage phytotoxicity) ALOMY POST", "value": 100, "unit": "%"}, {"measurement": "pest or weed control at 250 g/ha", "setting": "[2]; pre-emergence, 480 h, pre-emergence, assessed visually 20 DAA, read-out: Pre-emergence herbicidal activity (percentage phytotoxicity) ALOMY PRE", "value": 80, "unit": "%"}, {"measurement": "pest or weed control at 250 g/ha", "setting": "[3]; post-emergence, 360 h, post-emergence, assessed visually 15 DAA, read-out: Post-emergence herbicidal activity (percentage phytotoxicity) ECHCG POST", "value": 100, "unit": "%"}, {"measurement": "pest or weed control at 250 g/ha", "setting": "[3]; pre-emergence, 480 h, pre-emergence, assessed visually 20 DAA, read-out: Pre-emergence herbicidal activity (percentage phytotoxicity) ECHCG PRE", "value": 90, "unit": "%"}, {"measurement": "pest or weed control at 250 g/ha", "setting": "Avena fatua (AVEFA); post-emergence, 360 h, post-emergence, assessed visually 15 DAA, read-out: Post-emergence herbicidal activity (percentage phytotoxicity) AVEFA POST", "value": 100, "unit": "%"}, {"measurement": "pest or weed control at 250 g/ha", "setting": "Avena fatua (AVEFA); pre-emergence, 480 h, pre-emergence, assessed visually 20 DAA, read-out: Pre-emergence herbicidal activity (percentage phytotoxicity) AVEFA PRE", "value": 90, "unit": "%"}]}
